Laboratory results: patent US20030086947A1, “Vaccine against papillomatous digital dermatitis (PDD)” (TOWNSEND AND TOWNSEND AND CREW, priority 1997, published 2003)

Experiments:
[1] = system: lesions of papillomatous digital dermatitis (PDD); experiment: Effect of various treatments on lesions of papillomatous digital dermatitis in Holstein cows; format: in vivo; details: for No. of cows assessed: Responded / No. of lesions assessed: Responded: complete therapeutic response, assessed at post-treatment days 7, 14 and 21, herds 5 to 7; for Mean therapeutic response time: determined by desiccation and keratinization of surfaces and absence of pain
Protocol: (§1) The effect of various treatments was assessed on a total of 72 lesions of PDD in 35 cows in […] (herds 4 and 5-7). Treatments consisted of procaine penicillin G (G. C. Hanford Manufacturing Co., Syracuse, N.Y.), 18,000 units/kg IM BID for 3 days (7 cows); ceftiofur sodium (Naxcel®, The Upjohn Co., Kalamazoo, Mich.), 2 mg/kg daily for 3 days (14 cows); oxytetracycline (Terramycin—343®Pfizer Animal Health, N.Y.), single topical application of approximately 5 g of soluble powder bandaged directly onto a clean lesion for 7 days (3 cows); formadelhyde (Fisher Scientific, Pittsburg, Pa.), 39% v/v, single topical application (5 cows); hydrochloric acid (Fisher Scientific, Pittsburg, Pa.), 36% v/v, single topical application (4 cows); surgical excision (4 cows); and chlorodifluoromethane, dimethylether (Brand Spray, Stockman Products Ltd., Castledown, Isle of Man, UK), 2 minutes of topical cryogenic spray until lesion and margin were frozen solid and white (1 cow). Two cows which received no, treatment served as untreated controls. Therapeutic response was assessed at post treatment days: 7 (4 cows), 7 and 14 (23 cows) and 7, 14 and 21 (7 cows). Therapeutic response was considered complete if there was entire transformation of moist, red, raw, prone-to-bleed, painful surfaces to dry, dark brown, firm, rubbery, keratinacious, non-painful surfaces adherent to underlying pink healthy-appearing skin. […] Another 6 lesions of PDD in 4 cows in herd 4 were reexamined 5 weeks after total surgical excision.

[2] = system: lesions of papillomatous digital dermatitis (PDD); experiment: Prevalence of recurrent and new PDD lesions at follow-up examination of treated cows; format: in vivo, Holstein cows; details: for New: Cows n / New: Lesions n: lesion at a previously non-affected site; for New: Cows n / New: Lesions n / Recurrent: Cows n / Recurrent: Lesions n: cows that completely responded 7-12 weeks before follow-up; for Recurrent: Cows n / Recurrent: Lesions n: recurrence at a previously responsive affected site; for Recurrence and new-lesion development (in words): 7-12 weeks after complete response
Protocol: as §1

Molecule	No. of cows assessed: Responded [1]	No. of lesions assessed: Responded [1]	Mean therapeutic response time [1] [days]	New: Cows n [2]	New: Lesions n [2]	Recurrent: Cows n [2]	Recurrent: Lesions n [2]	Incomplete responses, number of cows ([1]; in vivo) [cows]	Recurrence and new-lesion development (in words) [2]	Therapeutic response of PDD lesions (in words) ([1]; in vivo)
C=O [Formaldehyde (39%), formadelhyde]	5	8	7	0	0	0^	0	–	–	–
CO/N=C(\C(=O)N[C@@H]1C(=O)N2C(C(=O)O)=C(CSC(=O)c3ccco3)CS[C@H]12)c1csc(N)n1 [Ceftiofur IM, ceftiofur sodium]	13	41	11.1 ± 4.5	2	2	4^|	6	2	Recurrence and new-lesion-development were observed	–
Cl [Hydrochloric acid (35%), hydrochloric acid]	2	3	7	2	3	0^	0	2	New lesions occurred	persistence of small painful deep ulcers
CN(C)[C@@H]1C(O)=C(C(N)=O)C(=O)[C@@]2(O)C(O)=C3C(=O)c4c(O)cccc4[C@@](C)(O)[C@H]3[C@H](O)[C@@H]12 [Oxytetracycline, topical, oxytetracycline]	3	4	7	–	–	–	–	–	–	–
procaine penicillin G [Penicillin G procaine IM]	7	9	8.2 ± 2.5	2	4	1^|	1	–	Recurrence and new-lesion-development were observed	–
